Structures can show the parent of a compound that is named as a salt.
Assay: In vitro inhibition of acid induced swelling in rat platelets by 50% as a measure of NHE-1 inhibition

Question: Which IC50 does the source give for `CC(C)c1ccc(C(=O)NC(=N)N)cc1S(C)(=O)=O` here?
Answer: The IC50 was 75 nM.

Question: For `Cc1ccnc2c1C(=NN=C(N)N)C[C@@H](c1cc(Cl)sc1Cl)C2` [(R)-N-[7-(2,5-dichloro-3-thienyl)-4-methyl-(7R)-5,6,7,8-tetrahydro-5-quinolinyliden(imine)]iminomethanediamine 2CH3SO3H], which IC50 is on record?
Answer: Its IC50 is 33 nM.

Question: Which IC50 does the source give for `Cc1ccnc2c1C(=NN=C(N)N)C[C@H](c1cc(Cl)sc1Cl)C2` [(S)-N-[7-(2,5-dichloro-3-thienyl)-4-methyl-(7S)-5,6,7,8-tetrahydro-5-quinolinyliden(imine)]iminomethanediamine 2CH3SO3H] here?
Answer: Its IC50 is 17 nM.

Question: For `Cc1ccc(F)cc1[C@H]1CC(=NN=C(N)N)c2c(C)ccnc2C1` [(S)-N-[7-(5-fluoro-2-methylphenyl)-4-methyl-(7S)-5,6,7,8-tetrahydro-5-quinolinyliden(imine)]iminomethanediamine 2CH3SO3H], which IC50 is on record?
Answer: The IC50 was 14 nM.

Question: Which IC50 does the source give for `Cc1cc(C)c2c(n1)CC(c1ccccc1)CC2=NN=C(N)N` (stereo not drawn) [N-(2,4-dimethyl-7-phenyl-5,6,7,8-tetrahydro-5-quinolinyliden(imine))iminomethanediamine. dihydrochloride] here?
Answer: Its IC50 is 180 nM.

Question: For `Cc1ccc2c(n1)CC(c1ccccc1)CC2=NN=C(N)N` (stereo not drawn) [N-(2-methyl-7-phenyl-5,6,7,8-tetrahydro-5-quinolinyliden(imine))iminomethanediamine. dihydrochloride], which IC50 is on record?
Answer: Its IC50 is 2800 nM.

Question: Which IC50 does the source give for `NC(N)=NN=C1CC(c2ccccc2)Oc2ccccc21` (stereo not drawn) [N-(2-phenyl-3,4-dihydro-2H-4-chromenyliden(imine))iminomethanediamine. hydrochloride] here?
Answer: The IC50 was 3300 nM.

Question: For `NC(N)=NN=c1cc(-c2ccccc2)oc2ccccc12` [N-(2-phenyl-4H-4-chromenyliden(imine))iminomethanediamine. hydrochloride], which IC50 is on record?
Answer: The IC50 was 6400 nM.

Question: With `Cc1ccnc2c1C(=NN=C(N)N)CC(c1ccccc1)C2` (stereo not drawn) [N-(4-methyl-7-phenyl-5,6,7,8-tetrahydro-5-quinolinyliden(imine))iminomethanediamine. dihydrochloride] as the compound, how does the IC50 read?
Answer: Its IC50 is 91 nM.

Question: Which IC50 does the source give for `NC(N)=NN=C1CC(c2ccccc2)Cc2[nH]ccc21` (stereo not drawn) [N-(6-phenyl-4,5,6,7-tetrahydro-1H-4-indolyliden(imine))iminomethanediamine. dihydrochloride] here?
Answer: The IC50 was 3500 nM.

Question: With `NC(N)=NN=C1CC(c2ccccc2)Cc2ncccc21` (stereo not drawn) [N-(7-phenyl-5,6,7,8-tetrahydro-5-quinolinyliden(imine))iminomethanediamine. dihydrochloride] as the compound, how does the IC50 read?
Answer: Its IC50 is 410 nM.

Question: For `COc1cccc(C=NNC(=N)N)c1OCc1ccccc1` [N-[2-(2-benzyloxy-3-methoxyphenyl)-(E)-1-meth(imine)]iminomethanediamine], which IC50 is on record?
Answer: Its IC50 is 2300 nM.

Question: With `Cc1cccc2c1C(=NN=C(N)N)CC(c1ccccc1Cl)O2` (stereo not drawn) [N-[2-(2-chlorophenyl)-5-methyl-3,4-dihydro-2H-4-chromenyliden(imine)]iminomethanediamine. hydrochloride] as the compound, how does the IC50 read?
Answer: Its IC50 is 200 nM.

Question: Which IC50 does the source give for `Cc1cccc2oc(-c3ccccc3Cl)cc(=NN=C(N)N)c12` [N-[2-(2-chlorophenyl)-5-methyl-4H-4-chromenylidenmethyl]iminomethanediamine. dihydrochloride] here?
Answer: The IC50 was 360 nM.

Question: Which IC50 does the source give for `Cc1ccccc1C1CC(=NN=C(N)N)c2c(C)c[nH]c2C1` (stereo not drawn) [N-[3-methyl-6-(2-methylphenyl)-4,5,6,7-tetrahydro-1H-4-indolyliden(imine)]iminomethanediamine. dihydrochloride] here?
Answer: Its IC50 is 34 nM.

Question: With `Cc1ccccc1C1CC(=NN=C(N)N)c2c(C)ccnc2C1` (stereo not drawn) [N-[4-methyl-7-(2-methylphenyl)-5,6,7,8-tetrahydro-5-quinolinyliden(imine)]iminomethanediamine. dihydrochloride] as the compound, how does the IC50 read?
Answer: Its IC50 is 57 nM.

Question: For `Cc1ccnc2c1C(=NN=C(N)N)CC(c1cccs1)C2` (stereo not drawn) [N-[4-methyl-7-(2-thienyl)-5,6,7,8-tetrahydro-5-quinolinyliden(imine)]iminomethanediamine. dihydrochloride], which IC50 is on record?
Answer: The IC50 was 47 nM.

Question: For `Cc1ccnc2c1C(=NN=C(N)N)CC(c1ccsc1)C2` (stereo not drawn) [N-[4-methyl-7-(3-thienyl)-5,6,7,8-tetrahydro-5-quinolinyliden(imine)]iminomethanediamine. dihydrochloride], which IC50 is on record?
Answer: Its IC50 is 30 nM.

Question: For `Cc1n[nH]c2c1C(=NN=C(N)N)CC(c1ccccc1Cl)C2` (stereo not drawn) [N-[6-(2-chlorophenyl)-3-methyl-4,5,6,7-tetrahydro-1H-4-indazolyliden(imine)]iminomethanediamine. dihydrochloride], which IC50 is on record?
Answer: The IC50 was 55 nM.

Question: With `Cc1coc2c1C(=NN=C(N)N)CC(c1ccccc1Cl)C2` (stereo not drawn) [N-[6-(2-chlorophenyl)-3-methyl-4,5,6,7-tetrahydrobenzo[b]furan-4-yliden(imine)]iminomethanediamine. hydrochloride] as the compound, how does the IC50 read?
Answer: Its IC50 is 82 nM.

Question: With `Cc1ccnc2c1C(=NN=C(N)N)CC(c1cccc(Cl)c1Cl)C2` (stereo not drawn) [N-[7-(2,3-dichlorophenyl)-4-methyl-5,6,7,8-tetrahydro-5-quinolinyliden(imine)]iminomethanediamine. dihydrochloride] as the compound, how does the IC50 read?
Answer: The IC50 was 89 nM.

Question: Which IC50 does the source give for `Cc1ccnc2c1C(=NN=C(N)N)CC(c1ccc(Cl)cc1Cl)C2` (stereo not drawn) [N-[7-(2,4-dichlorophenyl)-4-methyl-5,6,7,8-tetrahydro-5-quinolinyliden(imine)]iminomethanediamine. dihydrochloride] here?
Answer: The IC50 was 340 nM.

Question: For `Cc1ccnc2c1C(=NN=C(N)N)CC(c1cc(Cl)ccc1Cl)C2` (stereo not drawn) [N-[7-(2,5-dichlorophenyl)-4-methyl-5,6,7,8-tetrahydro-5-quinolinyliden(imine)]iminomethanediamine. dihydrochloride], which IC50 is on record?
Answer: Its IC50 is 58 nM.

Question: Which IC50 does the source give for `Cc1ccnc2c1C(=NN=C(N)N)CC(c1cc(F)ccc1F)C2` (stereo not drawn) [N-[7-(2,5-difluorophenyl)-4-methyl-5,6,7,8-tetrahydro-5-quinolinyliden(imine)]iminomethanediamine. dihydrochloride] here?
Answer: The IC50 was 39 nM.

Question: Which IC50 does the source give for `Cc1ccnc2c1C(=NN=C(N)N)CC(c1ccccc1Br)C2` (stereo not drawn) [N-[7-(2-bromophenyl)-4-methyl-5,6,7,8-tetrahydro-5-quinolinyliden(imine)]iminomethanediamine. dihydrochloride] here?
Answer: The IC50 was 56 nM.

Question: With `Cc1ccnc2c1C(=NN=C(N)N)CC(c1ccsc1Cl)C2` (stereo not drawn) [N-[7-(2-chloro-3-thienyl)-4-methyl-5,6,7,8-tetrahydro-5-quinolinyliden(imine)]iminomethanediamine. dihydrochloride] as the compound, how does the IC50 read?
Answer: Its IC50 is 22 nM.

Question: With `COc1ccnc2c1C(=NN=C(N)N)CC(c1ccccc1Cl)C2` (stereo not drawn) [N-[7-(2-chlorophenyl)-4-methoxy-5,6,7,8-tetrahydro-5-quinolinyliden(imine)]iminomethanediamine. 2CH3SO3H] as the compound, how does the IC50 read?
Answer: Its IC50 is 50 nM.

Question: For `Cc1cnnc2c1C(=NN=C(N)N)CC(c1ccccc1Cl)C2` (stereo not drawn) [N-[7-(2-chlorophenyl)-4-methyl-5,6,7,8-tetrahydro-5-cinnolinyliden(imine)]iminomethanediamine. dihydrochloride], which IC50 is on record?
Answer: The IC50 was 26 nM.

Question: For `Cc1ncnc2c1C(=NN=C(N)N)CC(c1ccccc1Cl)C2` (stereo not drawn) [N-[7-(2-chlorophenyl)-4-methyl-5,6,7,8-tetrahydro-5-quinazolinyliden(imine)]iminomethanediamine. dihydrochloride], which IC50 is on record?
Answer: Its IC50 is 240 nM.

Question: For `Cc1ccnc2c1C(=NN=C(N)N)CC(c1ccccc1Cl)C2` (stereo not drawn) [N-[7-(2-chlorophenyl)-4-methyl-5,6,7,8-tetrahydro-5-quinolinyliden(imine)]iminomethanediamine. dihydrochloride], which IC50 is on record?
Answer: The IC50 was 40 nM.

Question: Which IC50 does the source give for `Cc1ccnc2c1C(=NN=C(N)N)C[C@@H](c1ccccc1Cl)C2` [N-[7-(2-chlorophenyl)-4-methyl-(7S)-5,6,7,8-tetrahydro-5-quinolinyliden(imine)]iminomethanediamine 2CH3SO3H] here?
Answer: The IC50 was 700 nM.

Question: With `Cc1ccnc2c1C(=NN=C(N)N)C[C@H](c1ccccc1Cl)C2` [N-[7-(2-chlorophenyl)-4-methyl-(7S)-5,6,7,8-tetrahydro-5-quinolinyliden(imine)]iminomethanediamine 2CH3SO3H] as the compound, how does the IC50 read?
Answer: Its IC50 is 20 nM.

Question: For `Cc1ccnc2c1C(=NN=C(N)N)CC(c1ccco1)C2` (stereo not drawn) [N-[7-(2-furyl)-4-methyl-5,6,7,8-tetrahydro-5-quinolinyliden(imine)]iminomethanediamine. dihydrochloride], which IC50 is on record?
Answer: Its IC50 is 110 nM.

Question: With `COc1ccccc1C1CC(=NN=C(N)N)c2c(C)ccnc2C1` (stereo not drawn) [N-[7-(2-methoxyphenyl)-4-methyl-5,6,7,8-tetrahydro-5-quinolinyliden(imine)]iminomethanediamine. dihydrochloride] as the compound, how does the IC50 read?
Answer: The IC50 was 100 nM.

Question: With `Cc1ccnc2c1C(=NN=C(N)N)CC(c1sc(Cl)cc1Cl)C2` (stereo not drawn) [N-[7-(3,5-dichloro-2-thienyl)-4-methyl-5,6,7,8-tetrahydro-5-quinolinyliden(imine)]iminomethanediamine. dihydrochloride] as the compound, how does the IC50 read?
Answer: The IC50 was 49 nM.

Question: With `Cc1ccnc2c1C(=NN=C(N)N)CC(c1cccc(Cl)c1)C2` (stereo not drawn) [N-[7-(3-chlorophenyl)-4-methyl-5,6,7,8-tetrahydro-5-quinolinyliden(imine)]iminomethanediamine. dihydrochloride] as the compound, how does the IC50 read?
Answer: Its IC50 is 61 nM.

Question: With `Cc1ccnc2c1C(=NN=C(N)N)CC(c1ccc(Cl)cc1)C2` (stereo not drawn) [N-[7-(4-chlorophenyl)-4-methyl-5,6,7,8-tetrahydro-5-quinolinyliden(imine)]iminomethanediamine. dihydrochloride] as the compound, how does the IC50 read?
Answer: The IC50 was 550 nM.

Question: With `Cc1ccc(F)cc1C1CC(=NN=C(N)N)c2c(C)ccnc2C1` (stereo not drawn) [N-[7-(5-fluoro-2-methylphenyl)-4-methyl-5,6,7,8-tetrahydro-5-quinolinyliden(imine)]iminomethanediamine. dihydrochloride] as the compound, how does the IC50 read?
Answer: Its IC50 is 37 nM.

Source: BindingDB's records for doi:10.1021/jm0104567 (Takeda Chemical Industries, 2002)
